Values of other authors, collected in article PMC7721954, “Preclinical comparison of four [^18F, ^natGa]rhPSMA-7 isomers: influence of the stereoconfiguration on pharmacokinetics” (EJNMMI Research, 2020).
Like-named read-outs stand apart in the source and are kept apart here.

Columns and labels:
[1] = set-up: method as in PMID 16888726, doi:10.1016/j.jfluchem.2010.10.008; settings: cited from earlier work
[2] = n-octanol/PBS pH 7.4, cited from earlier work
[3] = system: LNCaP cells; settings: 1 h, 37 °C, percentage of reference ligand ([125I]I-BA)KuE, n = 3; cited from earlier work
[4] = target: T1, human serum albumin (Homo sapiens, UniProt P02768); settings: Chiralpak HSA column, cited from earlier work
T1 construct: purchased
T1 sequence (P02768 25-609): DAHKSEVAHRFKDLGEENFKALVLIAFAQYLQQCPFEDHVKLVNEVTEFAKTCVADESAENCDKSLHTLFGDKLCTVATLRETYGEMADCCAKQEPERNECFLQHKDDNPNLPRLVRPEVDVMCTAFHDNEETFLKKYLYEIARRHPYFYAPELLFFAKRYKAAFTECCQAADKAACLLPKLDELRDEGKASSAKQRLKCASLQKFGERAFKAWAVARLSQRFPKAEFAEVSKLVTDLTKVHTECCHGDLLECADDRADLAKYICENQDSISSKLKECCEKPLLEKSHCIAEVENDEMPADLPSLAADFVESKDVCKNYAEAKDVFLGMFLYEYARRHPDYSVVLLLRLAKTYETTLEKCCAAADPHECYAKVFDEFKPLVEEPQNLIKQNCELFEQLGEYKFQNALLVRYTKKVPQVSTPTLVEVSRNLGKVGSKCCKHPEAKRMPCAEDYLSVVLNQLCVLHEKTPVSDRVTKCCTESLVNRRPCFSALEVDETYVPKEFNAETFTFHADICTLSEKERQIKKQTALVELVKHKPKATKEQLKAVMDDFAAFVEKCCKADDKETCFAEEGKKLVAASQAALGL

[5] = target: T2, PSMA (Homo sapiens, UniProt Q04609); settings: LNCaP cells, 1 h, 4 °C, n = 3; read-out: IC50 (binding affinity); cited from earlier work
T2 construct: host or cells: LNCaP cells
T2 sequence (Q04609 whole entry): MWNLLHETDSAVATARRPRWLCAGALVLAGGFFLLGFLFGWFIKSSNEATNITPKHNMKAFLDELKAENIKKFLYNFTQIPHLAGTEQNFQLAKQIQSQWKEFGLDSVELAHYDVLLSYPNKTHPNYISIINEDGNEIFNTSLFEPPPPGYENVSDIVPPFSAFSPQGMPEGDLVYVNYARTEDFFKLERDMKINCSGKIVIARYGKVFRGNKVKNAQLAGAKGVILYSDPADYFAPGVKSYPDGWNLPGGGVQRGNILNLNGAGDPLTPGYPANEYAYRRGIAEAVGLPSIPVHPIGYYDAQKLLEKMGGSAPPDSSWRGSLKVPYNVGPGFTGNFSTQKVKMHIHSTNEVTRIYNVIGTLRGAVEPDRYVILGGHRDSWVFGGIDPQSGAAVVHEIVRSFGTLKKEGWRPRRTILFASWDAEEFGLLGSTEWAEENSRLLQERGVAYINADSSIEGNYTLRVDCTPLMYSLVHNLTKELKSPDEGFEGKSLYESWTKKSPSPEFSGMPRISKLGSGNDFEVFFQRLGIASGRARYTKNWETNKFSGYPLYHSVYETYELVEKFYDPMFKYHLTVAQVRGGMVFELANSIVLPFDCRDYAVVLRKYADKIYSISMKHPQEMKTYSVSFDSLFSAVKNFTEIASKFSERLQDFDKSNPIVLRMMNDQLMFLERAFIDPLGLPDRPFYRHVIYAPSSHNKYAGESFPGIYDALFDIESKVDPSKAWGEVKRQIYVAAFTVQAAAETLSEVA

For `CC(C)(C)[Si](F)(c1ccc(C(=O)O)cc1)C(C)(C)C` [SiFA-moiety, 4-(di-tert-butylfluorosilyl)benzoic acid], the “log P” value [1] is listed as 3.6.
For `O=C(O)CC[C@H](NC(=O)N[C@@H](CCCCNC(=O)c1ccc(F)nc1)C(=O)O)C(=O)O` [[^18/19F]DCFPyL], the “Lipophilicity Log D” value ([2]; listed as [^18F]DCFPyL) is given as -3.4 ± 0.03, the “Internalization (internalized activity)” value [3] is given as 118 ± 4 % of reference and the HSA-binding [4] is given as 14%.
For `O=C(O)CC[C@H](NC(=O)N[C@@H](CCCCNC(=O)[C@H](Cc1ccc2ccccc2c1)NC(=O)c1ccc(CNC(=O)[C@H](CCC(=O)O)NC(=O)[C@H](CCC(=O)O)NC(=O)c2ccc(F)nc2)cc1)C(=O)O)C(=O)O` [[^18/19F]PSMA-1007], the IC50 [5] is given as 4.2 ± 0.5 nM.
For `O=C(O)CC[C@H](NC(=O)N[C@@H](CCCCNC(=O)[C@H](Cc1ccc2ccccc2c1)NC(=O)c1ccc(CNC(=O)[C@H](CCC(=O)O)NC(=O)[C@H](CCC(=O)O)NC(=O)c2ccc([18F])nc2)cc1)C(=O)O)C(=O)O` [[^18/19F]PSMA-1007], the “Lipophilicity Log D” value ([2]; listed as [^18F]PSMA-1007) is given as -1.6 ± 0.02, the “Internalization (internalized activity)” value [3] is given as 118 ± 5 % of reference and the HSA-binding [4] is given as 98%. The HSA-binding ([4]; listed as [^19F]PSMA-1007) was over 96%.
